Data from paper PMC5069167 (Nature chemical biology, 2016).

Biological target: T1, PolD (Streptomyces asoensis, UniProt C1IC31)
T1 sequence (C1IC31 1-215): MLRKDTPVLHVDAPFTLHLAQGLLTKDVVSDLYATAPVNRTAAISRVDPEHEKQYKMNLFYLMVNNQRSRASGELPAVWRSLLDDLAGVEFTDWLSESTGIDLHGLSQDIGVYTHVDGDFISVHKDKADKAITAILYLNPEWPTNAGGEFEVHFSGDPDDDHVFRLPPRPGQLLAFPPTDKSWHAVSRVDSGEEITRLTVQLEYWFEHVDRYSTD
Assay: binding and oxidation of alpha-KG, succinate detection by HR-MS
Assay type: biochemical
Settings: Fe(II), ascorbate 5 mM, O2, pH 7.6, 25 °C

## O=C(O)CCC(=O)C(=O)O [α-KG]
  binding and oxidation of alpha-KG, succinate detection by HR-MS: non-heme mono-iron center capable of binding and oxidizing α-KG
